From patent publication US8685916B2, “Opioid prodrugs with heterocyclic linkers” (Signature Therapeutics, Inc., priority 2011, dated 2014)
Read-outs that look alike come from different tables or passages of the source.

Key:
trypsin [1] = target: T1, trypsin (Bos taurus, UniProt P00760); test: In vitro trypsin-mediated cleavage of hydrocodone prodrugs; assay type: biochemical, bovine; conditions: bovine, trypsin from bovine pancreas, pH 8; adjusted to 4815 BAEE U trypsin/mL; read-out: Prodrug trypsin half-life (converted)
T1 construct: purchased Sigma-Aldrich T8003; host or cells: bovine pancreas (tissue-derived preparation)
T1 sequence (P00760 24-246): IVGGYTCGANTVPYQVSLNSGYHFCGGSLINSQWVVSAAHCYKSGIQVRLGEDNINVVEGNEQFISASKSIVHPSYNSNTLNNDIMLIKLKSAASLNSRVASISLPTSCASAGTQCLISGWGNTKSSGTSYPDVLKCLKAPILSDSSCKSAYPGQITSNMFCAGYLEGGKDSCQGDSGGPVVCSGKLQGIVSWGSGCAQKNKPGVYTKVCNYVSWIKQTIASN
Experimental: (§1) The reactions were conducted at 37° C. for 24 h.
(§2) Table 9 indicates the results of exposure of the tested prodrugs to trypsin.

[2] = Pharmacokinetics of oxycodone prodrugs following PO administration to dogs; conditions: oxycodone in dog plasma, 5.7-[…] (prodrugs 4.15-[…]; oxycodone 2 mg/kg; OxyContin 20 mg tablet)
[3] = target: T2, trypsin from bovine pancreas (Bos taurus, UniProt P00760); test: In vitro trypsin-mediated cleavage of oxycodone prodrugs; assay type: biochemical; conditions: 0.761 mM prodrug, Tris pH 8, 37° C.
T2 construct: purchased Sigma-Aldrich T8003; host or cells: bovine pancreas (tissue-derived preparation)
T2 sequence (P00760 24-246): T1 sequence (P00760 24-246)
Experimental: as §1
(§3) Table 4 indicates the results of exposure of the tested prodrugs to trypsin. […] Table 4 also indicates the cyclization rate of the cyclizable spacer leaving group of Compound KC-9, Compound KC-11, and Compound KC-18. The results are expressed as half-life of compound disappearance. For Compound KC-11, a diastereomer, two peaks (A and B) were analyzed.

trypsin [4] = target: T1, trypsin; test: as above; assay type: biochemical, bovine; conditions: bovine, trypsin from bovine pancreas; 0.761 mM prodrug, Tris pH 8, 37° C.; adjusted to 4815 BAEE U trypsin/mL
Experimental: as §1, §3

[5] = Pharmacokinetics following PO administration of ketone-modified oxycodone prodrugs to rats
[6] = target: T2, trypsin from bovine pancreas; test: In vitro trypsin-mediated cleavage of hydrocodone prodrugs; assay type: biochemical
Experimental: as §1, §2

[7] = target: T2, trypsin from bovine pancreas; test: In vitro trypsin conversion of Compound TP-5 to tapentadol and inhibition by Compound 109; assay type: biochemical
Experimental: (§4) Other reaction, incubation, sample treatment and analysis procedures were similar to those described in Example 39.

trypsin [8] = target: T1, trypsin; test: as above; assay type: biochemical, bovine; conditions: bovine, trypsin from bovine pancreas, read-out: Pro-drug trypsin half-life, Average ± sd (converted)
Experimental: as §4

[9] = Pharmacokinetics following PO administration of increasing doses of Compound KC-31 to rats; conditions: male, Sprague Dawley, rat, plasma, 10 mg/kg
[10] = Pharmacokinetics of hydrocodone prodrugs following PO administration to dogs, with or without Compound 109
[11] = Oral administration of hydrocodone prodrugs KC-40 or KC-50 co-dosed with Compound 109 to rats; conditions: rat; for Cmax: HC Cmax ± sd
[12] = oxycodone in rat plasma, 28-34 μmol/kg (prodrugs 16-24 mg/kg; oxycodone 10 mg/kg)

## COc1ccc2c3c1O[C@H]1C(OC(=O)N4CC(C(=O)O)CCC4CNC(=O)[C@H](CCCNC(=N)N)NC(=O)CNC(C)=O)=CC[C@H]4[C@@H](C2)N(C)CC[C@]314 (mixture of isomers) [Compound KC-32, N-(hydrocodone-6-enol-carbonyl)-[(2-methylamino)piperidine-3-carboxylate]-L-arginine-glycine-acetate]
Trypsin [1]
  half-life at 0.761 mM: 9 min

## COc1ccc2c3c1O[C@H]1C(OC(=O)N(C)CCNC(=O)[C@H](CCCNC(=N)N)NC(=O)CC(=O)O)=CC[C@@]4(O)[C@@H](C2)N(C)CC[C@]314 [Compound KC-3, N-1-[2-(oxycodone-6-enol-carbonyl-methyl-amino)-ethylamine]-L-arginine-malonate]
[2]
  AUC ± sd: 65.6 ± 22 ng·h/mL
  OC Cmax ± sd: 10.2 ± 3.3 ng/mL

## COc1ccc2c3c1O[C@H]1C(OC(=O)N4CCCC4CNC(=O)[C@H](CCCNC(=N)N)NC(=O)CC(=O)O)=CC[C@@]4(O)[C@@H](C2)N(C)CC[C@]314 (stereo partly drawn) [Compound KC-10, N-(oxycodone-6-enol-carbonyl)pyrrolidine-2-methylamine-L-arginine-malonate]
[3]
  OC formation rate: 0.00274 ± 0.00027 μmol/h/BAEE U
Trypsin [4]
  half-life at 0.761 mM: 9.01 ± 0.306 min

## COc1ccc2c3c1O[C@H]1C(OC(=O)N4CCCCC4CN)=CC[C@@]4(O)[C@@H](C2)N(C)CC[C@]314 (some centres unmarked) [Compound KC-11, N-(oxycodone-6-enol-carbonyl)piperidine-2-methylamine]
[5]; oxycodone in rat plasma, 0 to 24 h, 28-34 μmol/kg (prodrugs 16-24 mg/kg; oxycodone 10 mg/kg)
  AUC ± sd: 57.0 ± 9.0 ng·h/mL
[5]; [12]
  OC Cmax ± sd: 13.6 ± 3.0 ng/mL
  Tmax ± sd: 60 ± 0 min
[5]; rats
  release of oxycodone compared with Compound KC-9: significantly more oxycodone than does Compound KC-9

## COc1ccc2c3c1O[C@H]1C(OC(=O)N4CCCCC4CNC(=O)[C@H](CCCNC(=N)N)NC(=O)CC(=O)O)=CC[C@@]4(O)[C@@H](C2)N(C)CC[C@]314 (stereo partly drawn) [Compound KC-12, N-(oxycodone-6-enol-carbonyl)piperidine-2-methylamine-L-arginine-malonate]
[3]
  OC formation rate: 0.231 ± 0.0097 μmol/h/BAEE U
Trypsin [4]
  half-life at 0.761 mM: 9.498 ± 0.0114 min

## COc1ccc2c3c1O[C@H]1C(OC(=O)N4CCCCC4CNC(=O)[C@H](CCCNC(=N)N)NC(=O)[C@H](C)NC(C)=O)=CC[C@@]4(O)[C@@H](C2)N(C)CC[C@]314 (stereo partly drawn) [Compound KC-13, N-(oxycodone-6-enol-carbonyl)piperidine-2-methylamine-L-arginine-L-alanine-acetate]
[3]
  OC formation rate: 47.1 ± 5.72 μmol/h/BAEE U
Trypsin [4]
  half-life at 0.761 mM: 0.0458 ± 0.00051 min

## COc1ccc2c3c1O[C@H]1C(OC(=O)N4CCCCC4CNC(=O)[C@H](CCCNC(=N)N)NC(=O)CNC(C)=O)=CC[C@@]4(O)[C@@H](C2)N(C)CC[C@]314 (stereo partly drawn) [Compound KC-14, N-(oxycodone-6-enol-carbonyl)piperidine-2-methylamine-L-arginine-glycine-acetate]
[3]
  OC formation rate: 5.48 ± 0.1 μmol/h/BAEE U
Trypsin [4]
  half-life at 0.761 mM: 0.5143 ± 0.00198 min

## COc1ccc2c3c1O[C@H]1C(OC(=O)N4CCCCC4CNC(=O)[C@H](CCCNC(=N)N)NC(=O)[C@H](C)NC(=O)CC(=O)O)=CC[C@@]4(O)[C@@H](C2)N(C)CC[C@]314 (stereo partly drawn) [Compound KC-15, N-(oxycodone-6-enol-carbonyl)piperidine-2-methylamine-L-arginine-L-alanine-malonate]
[3]
  OC formation rate: 22.3 ± 0.8 μmol/h/BAEE U
Trypsin [4]
  half-life at 0.761 mM: 0.173 ± 0.0114 min

## COc1ccc2c3c1O[C@H]1C(OC(=O)N4CCCCC4CNC(=O)[C@H](CCCNC(=N)N)NC(=O)CNC(=O)CC(=O)O)=CC[C@@]4(O)[C@@H](C2)N(C)CC[C@]314 (stereo partly drawn) [Compound KC-16, N-(oxycodone-6-enol-carbonyl)piperidine-2-methylamine-L-arginine-glycine-malonate]
[3]
  OC formation rate: 1.46 ± 0.093 μmol/h/BAEE U
Trypsin [4]
  half-life at 0.761 mM: 2.37 ± 0.162 min

## COc1ccc2c3c1O[C@H]1C(OC(=O)N4CCCC[C@@H]4CNC(=O)[C@H](CCCNC(=N)N)NC(=O)CNC(=O)CC(=O)O)=CC[C@@]4(O)[C@@H](C2)N(C)CC[C@]314 [Compound KC-17, N-(oxycodone-6-enol-carbonyl)-R-(piperidine-2-methylamine)-L-arginine-glycine-malonate]
[3]
  OC formation rate: 1.23 ± 0.011 μmol/h/BAEE U
Trypsin [4]
  half-life at 0.761 mM: 2.65 ± 0.117 min

## COc1ccc2c3c1O[C@H]1C(OC(=O)N4CCCC[C@@H]4CNC(=O)[C@H](CCCNC(=N)N)NC(=O)CNC(=O)CC(=O)O)=CC[C@H]4[C@@H](C2)N(C)CC[C@]314 [Compound KC-31, N-(hydrocodone-6-enol-carbonyl)-R-(piperidine-2-methylamine)-L-arginine-glycine-malonate]
Trypsin [1]
  half-life at 0.761 mM: 3.9 min

## COc1ccc2c3c1O[C@H]1C(OC(=O)N4CCCC[C@@H]4CNC(=O)[C@H](CCCNC(=N)N)NC(=O)[C@H](C)NC(=O)CC(=O)O)=CC[C@H]4[C@@H](C2)N(C)CC[C@]314 [Compound KC-35, N-(hydrocodone-6-enol-carbonyl)-R-(piperidine-2-methylamine)-L-arginine-L-alanine-malonate]
Trypsin [1]
  half-life at 0.761 mM: 0.48 min

## COc1ccc2c3c1O[C@H]1C(OC(=O)N4CCCC[C@@H]4CNC(=O)[C@H](CCCNC(=N)N)NC(=O)CNC(C)=O)=CC[C@H]4[C@@H](C2)N(C)CC[C@]314 [Compound KC-36, N-(hydrocodone-6-enol-carbonyl)-R-(piperidine-2-methylamine)-L-arginine-glycine-acetate]
[6]
  HC formation rate: 0.004 ± 0.00 μmol/h/BAEE U
Trypsin [1]
  half-life at 0.761 mM: 1.08 min

## COc1ccc2c3c1O[C@H]1C(OC(=O)N4CCCC[C@@H]4CNC(=O)[C@H](CCCNC(=N)N)NC(=O)[C@H](C)NC(C)=O)=CC[C@H]4[C@@H](C2)N(C)CC[C@]314 [Compound KC-37, N-(hydrocodone-6-enol-carbonyl)-R-(piperidine-2-methylamine)-L-arginine -L-alanine-acetate]
[6]
  HC formation rate: 0.004 ± 0.00 μmol/h/BAEE U

## COc1ccc2c3c1O[C@H]1C(OC(=O)N4CCCC[C@@H]4CNC(=O)[C@H](CCCNC(=N)N)NC(C)=O)=CC[C@H]4[C@@H](C2)N(C)CC[C@]314 [Compound KC-38, N-(hydrocodone-6-enol-carbonyl)-R-(piperidine-2-methylamine)-L-arginine-acetate]
[6]
  HC formation rate: 0.001 ± 0.00 μmol/h/BAEE U
Trypsin [1]
  half-life at 0.761 mM: 7.2 ± 0.6 min

## COc1ccc2c3c1O[C@H]1C(OC(=O)N4CCCC[C@@H]4CNC(=O)[C@H](CCCNC(=N)N)NC(=O)CC(=O)O)=CC[C@H]4[C@@H](C2)N(C)CC[C@]314 [Compound KC-39, N-(hydrocodone-6-enol-carbonyl)-R-(piperidine-2-methylamine)-L-arginine-malonate]
[6]
  HC formation rate: 0.00 ± 0.00 μmol/h/BAEE U
Trypsin [1]
  half-life at 0.761 mM: 23.9 min

## CC[C@@H](c1cccc(OC(=O)N2CCCCC2CNC(=O)[C@@H](CCCNC(=N)N)NC(=O)CC(=O)O)c1)[C@@H](C)CN(C)C (stereo partly drawn) [Compound TP-5, N-(Tapentadol-carbonyl)piperidine-2-methylamine-L-arginine-malonate]
[7]; Compound 109 0 μM
  Rate of TP formation, Average ± sd: 0.684 ± 0.036 μmol/h/BAEE U
[7]; Compound 109 8 μM
  Rate of TP formation, Average ± sd: 0.1043 ± 0.0049 μmol/h/BAEE U
Trypsin [8]; with Compound 109 (trypsin inhibitor), 8 µM
  half-life: 62.4 ± 0.0366 min
Trypsin [8]
  half-life: 3.99 ± 0.00024 min

## COc1ccc2c3c1O[C@H]1C(=O)CC[C@H]4[C@@H](C2)N(C)CC[C@]314 [Hydrocodone, hydrocodone]
[9]
  Cmax: 5.49 ± 1.7 ng/mL
  Tmax: 63.6 ± 43.2 min
[10]; Table 12: dog, […] values adjusted to expected value for a 2 μmol/kg dose (4 dose equivalents)
  HC Cmax ± sd: 56.0 n/a^ ng/mL
[10]; Table 12: dog, […] values adjusted to expected value for a 5 μmol/kg dose (10 dose equiv)
  HC Cmax ± sd: 140 n/a^ ng/mL
[10]; Table 13: dog plasma, PO, hydrocodone […] (0.5 μmol/kg)
  HC Cmax ± sd: 14.0 ± 4.3^ ng/mL
[10]; Table 13: dog, […] values adjusted to expected value for a 5 μmol/kg dose (10 dose equiv)
  HC Cmax ± sd: 140 n/a^ ng/mL
[11]; Sprague Dawley, plasma, po, […]
  Tmax: 63.6 min
[11]; Sprague Dawley, plasma, po, […], Table 11A: hydrocodone values in Table 10 adjusted to provide expected values at a […] (62 μmol/kg) dose
  Cmax: 11.9 ng/mL
[11]; Sprague Dawley, plasma, po, […], Table 11B: hydrocodone values in Table 10 adjusted to provide expected values at a 62 μmol/kg ([…]) dose
  Cmax: 12.4 ng/mL
[11]; Table 11B: hydrocodone values in Table 10 adjusted to provide expected values at a 62 μmol/kg ([…]) dose
  Tmax ± sd: 63.6 min
